In one test the test system is 20032 (donor line of iPSC-derived cardiomyocytes). Nature of the test: POD (EC10) for decrease in total cell number (cytotoxicity) vs vehicle; higher = less potent (higher point of departure). The settings on record: exposure time: 90 min. On the procedure: (§1)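 Human iPSC-derived cardiomyocytes from 16 donors were exposed for 90 min at 37 °C to each PFAS at 0.1, 1, 10 and 100 µM in 0.5% DMSO, 384-well plates. Kinetic Ca2+ flux (FLIPR) and Hoechst nuclei counts were normalised to vehicle wells and fitted with a hierarchical Bayesian Hill model to give donor-specific PODs: EC05 for beat-rate increase or decrease and for decay-to-rise ratio increase (QT proxy), EC95 for peak-frequency loss (asystole), EC10 for total cell number loss. 0.03 µM is the lower bound.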
In turn, `OCC(F)(F)C(F)(F)C(F)(F)F` [Heptafluorobutanol] came in with a POD vs vehicle above 100 µM.
With `OCC(F)(F)C(F)(F)C(F)(F)CO` [Hexafluoroamylene_glycol], the POD vs vehicle is above 100 µM.
For the molecule `NC(=O)C(F)(F)C(F)(F)C(F)(F)C(F)(F)F` [Nonafluoropentanamide], the POD vs vehicle is above 100 µM.
Take `O=C(O)C(F)(F)OC(F)(F)C(F)(F)OC(F)(F)F` [Perfluoro-3,6-dioxaheptanoic_acid]: the POD vs vehicle is above 100 µM.
`O=C(O)C(F)(F)OC(F)(F)C(F)(F)OC(F)(F)C(=O)O` [Perfluoro-3,6-dioxaoctane-1,8-dioic_acid] returned a POD vs vehicle above 100 µM.
Regarding `O=C(O)C(F)(F)C(F)(F)C(F)(F)OC(F)(C(F)(F)F)C(F)(F)F` [Perfluoro-4-isopropoxybutanoic_acid], the POD vs vehicle is above 100 µM.
The molecule `O=S(=O)(O)C(F)(F)C(F)(F)C(F)(F)C(F)(F)F` [Perfluorobutanesulfonic_acid] gave a POD vs vehicle above 100 µM.
Still for that read-out and setting: under `O=C(O)C(F)(F)C(F)(F)C(F)(F)C(F)(F)C(F)(F)C(F)(F)C(F)(F)C(F)(F)F` [Perfluorononanoic_acid] stands above 100 µM; under `O=S(=O)([O-])C(F)(F)C(F)(F)C(F)(F)C(F)(F)F.[K+]` [Potassium_perfluorobutanesulfonate], above 100 µM.

The test system of another test is 1531 (donor line of iPSC-derived cardiomyocytes). The description is as above. Conditions: exposure time: 90 min. On the procedure:
as §1
In turn, `NC(=O)C(F)(F)C(F)(F)C(F)(F)C(F)F` displayed a POD vs vehicle above 100 µM.
In turn, `OCC(O)CC(F)(F)C(F)(F)C(F)(F)C(F)(F)C(F)(F)C(F)(F)C(F)(F)C(F)(F)F` (configuration not stated) [1-(Perfluorofluorooctyl)propane-2,3-diol] had a POD vs vehicle above 100 µM.
On the same count and under the same terms, the same measure for `CC(O)C(F)(F)C(F)(F)F` (configuration not stated) [1-Pentafluoroethylethanol]: above 100 µM; for `O=C(O)C(F)(F)C(F)(F)C(F)F` [2,2,3,3,4,4-Hexafluorobutanoic_acid]: above 100 µM.
Still for that read-out and setting: under `NC(O)(C(F)(F)F)C(F)(F)F` [2-Aminohexafluoropropan-2-ol] stands above 100 µM.
On the same count and under the same terms, under `O=C(O)CCC(F)(F)C(F)(F)C(F)(F)C(F)(F)C(F)(F)F` [2H,2H,3H,3H-Perfluorooctanoic_acid] stands above 100 µM.
In turn, `O=C(O)C=C(C(F)(F)F)C(F)(F)F` [3,3-Bis(trifluoromethyl)-2-propenoic_acid] yielded a POD vs vehicle above 100 µM.
Still for that read-out and setting: under `O=C(O)C=CC(F)(C(F)(F)F)C(F)(F)F` [3-(Perfluoroisopropyl)-2-propenoic_acid] stands above 100 µM; under `O=C(O)CCC(F)(F)C(F)(F)C(F)(F)F` [3:3 Fluorotelomer carboxylic acid], above 100 µM; under `O=C(CC(=O)C(F)(F)C(F)(F)F)C(F)(F)F` [3H,3H-Perfluoro-2,4-hexanedione], above 100 µM.
On the same count and under the same terms, the same measure for `O=S(=O)(O)CCC(F)(F)C(F)(F)C(F)(F)C(F)(F)F` [4:2 Fluorotelomer sulfonic acid]: above 100 µM; for `OCC(F)(F)C(F)(F)C(F)(F)F` [Heptafluorobutanol]: above 100 µM; for `OCC(F)(F)C(F)(F)C(F)(F)CO` [Hexafluoroamylene_glycol]: above 100 µM.
Molecule `NC(=O)C(F)(F)C(F)(F)C(F)(F)C(F)(F)F` [Nonafluoropentanamide] yielded a POD vs vehicle above 100 µM.
Still for that read-out and setting: under `O=C(O)C(F)(F)OC(F)(F)C(F)(F)OC(F)(F)F` [Perfluoro-3,6-dioxaheptanoic_acid] stands above 100 µM; under `O=C(O)C(F)(F)OC(F)(F)C(F)(F)OC(F)(F)C(=O)O` [Perfluoro-3,6-dioxaoctane-1,8-dioic_acid], above 100 µM; under `O=C(O)C(F)(F)C(F)(F)C(F)(F)OC(F)(C(F)(F)F)C(F)(F)F` [Perfluoro-4-isopropoxybutanoic_acid], above 100 µM.
As for `O=S(=O)(O)C(F)(F)C(F)(F)C(F)(F)C(F)(F)F` [Perfluorobutanesulfonic_acid], the POD vs vehicle was above 100 µM.
Same read-out and setting: the same measure for `O=C(O)C(F)(F)C(F)(F)C(F)(F)C(F)(F)C(F)(F)C(F)(F)C(F)(F)C(F)(F)F` [Perfluorononanoic_acid]: above 100 µM; for `O=S(=O)([O-])C(F)(F)C(F)(F)C(F)(F)C(F)(F)F.[K+]` [Potassium_perfluorobutanesulfonate]: above 100 µM.

A further test has as its system 1434 (donor line of iPSC-derived cardiomyocytes). The description is as above. Conditions: exposure time: 90 min. The method, then:
as §1
With `NC(=O)C(F)(F)C(F)(F)C(F)(F)C(F)F`, the POD vs vehicle is above 100 µM.
`OCC(O)CC(F)(F)C(F)(F)C(F)(F)C(F)(F)C(F)(F)C(F)(F)C(F)(F)C(F)(F)F` (configuration not stated) [1-(Perfluorofluorooctyl)propane-2,3-diol] showed a POD vs vehicle above 100 µM.
In turn, `CC(O)C(F)(F)C(F)(F)F` (configuration not stated) [1-Pentafluoroethylethanol] gave a POD vs vehicle above 100 µM.
Same read-out and setting: under `O=C(O)C(F)(F)C(F)(F)C(F)F` [2,2,3,3,4,4-Hexafluorobutanoic_acid] stands above 100 µM.
Same read-out and setting: under `NC(O)(C(F)(F)F)C(F)(F)F` [2-Aminohexafluoropropan-2-ol] stands above 100 µM; under `O=C(O)CCC(F)(F)C(F)(F)C(F)(F)C(F)(F)C(F)(F)F` [2H,2H,3H,3H-Perfluorooctanoic_acid], above 100 µM; under `O=C(O)C=C(C(F)(F)F)C(F)(F)F` [3,3-Bis(trifluoromethyl)-2-propenoic_acid], above 100 µM.
With `O=C(O)C=CC(F)(C(F)(F)F)C(F)(F)F` [3-(Perfluoroisopropyl)-2-propenoic_acid], the POD vs vehicle is above 100 µM.
In the case of `O=C(O)CCC(F)(F)C(F)(F)C(F)(F)F` [3:3 Fluorotelomer carboxylic acid], the POD vs vehicle was above 100 µM.
On the same count and under the same terms, under `O=C(CC(=O)C(F)(F)C(F)(F)F)C(F)(F)F` [3H,3H-Perfluoro-2,4-hexanedione] stands 21.9 µM; under `O=S(=O)(O)CCC(F)(F)C(F)(F)C(F)(F)C(F)(F)F` [4:2 Fluorotelomer sulfonic acid], above 100 µM; under `OCC(F)(F)C(F)(F)C(F)(F)F` [Heptafluorobutanol], above 100 µM.
`OCC(F)(F)C(F)(F)C(F)(F)CO` [Hexafluoroamylene_glycol] showed a POD vs vehicle above 100 µM.
Still for that read-out and setting: under `NC(=O)C(F)(F)C(F)(F)C(F)(F)C(F)(F)F` [Nonafluoropentanamide] stands above 100 µM.
Consider `O=C(O)C(F)(F)OC(F)(F)C(F)(F)OC(F)(F)F` [Perfluoro-3,6-dioxaheptanoic_acid], for which the POD vs vehicle was above 100 µM.
On the same count and under the same terms, the same measure for `O=C(O)C(F)(F)OC(F)(F)C(F)(F)OC(F)(F)C(=O)O` [Perfluoro-3,6-dioxaoctane-1,8-dioic_acid]: above 100 µM.
The same measure, in the same setting: the same measure for `O=C(O)C(F)(F)C(F)(F)C(F)(F)OC(F)(C(F)(F)F)C(F)(F)F` [Perfluoro-4-isopropoxybutanoic_acid]: above 100 µM; for `O=S(=O)(O)C(F)(F)C(F)(F)C(F)(F)C(F)(F)F` [Perfluorobutanesulfonic_acid]: above 100 µM.

For the origin of these results see the supplement of paper PMC11368000.
